From patent publication US20150203474A1, “SOLID FORMS COMPRISING INHIBITORS OF HCV NS5A, COMPOSITIONS THEREOF, AND USES THEREWITH” (PRESIDIO PHARMACEUTICALS ,INC., priority 2012, published 2015)
Values after ≈ are worked out from the molar mass of the structure shown.

Assay: Solubility of Form A (aliquot addition / slurry, visual)
Type: physicochemical
Experimental: Aliquots of various solvents were added to measured amounts of Form A with agitation (typically sonication) at ambient or elevated temperatures until completedissolution was achieved, as judged by visual observation. […] Samples were left to slurry at ambient and elevated temperatures for several days; however, no further dissolution was observed.

COC(=O)N[C@H](C(=O)N1CCC[C@H]1c1ncc(-c2ccc3cc(-c4ccc5nc([C@@H]6CCCN6C(=O)[C@@H](NC(=O)OC)C(C)C)[nH]c5c4)ccc3c2)[nH]1)C(C)C [Form A of Compound I]
Solubility estimate (in words) (IPA and IPA/MTBE (2/1 (v/v)) mixtures at ambient and elevated temperatures, aliquot addition): poorly soluble | solubility (IPA/water (95/5 v/v), organic solvent or mixture, thermodynamic from solid, IPA:H2O (95:5), RT, aliquot addition): 33000 µg/mL (≈ 43.3 mM) | solubility (organic solvent or mixture, thermodynamic from solid, IPA, RT, aliquot addition): < 3000 µg/mL | solubility at 4 days (organic solvent or mixture, thermodynamic from solid, IPA, RT, slurry, 4 days): < 3000 µg/mL | solubility (organic solvent or mixture, thermodynamic from solid, IPA, ~60° C., aliquot addition): 2000 µg/mL (≈ 2.62 mM) | solubility at 6 days (organic solvent or mixture, thermodynamic from solid, IPA, ~60° C., slurry, 6 days): < 6000 µg/mL | solubility (organic solvent or mixture, thermodynamic from solid, IPA:tBME (2:1), RT, aliquot addition): < 2000 µg/mL | solubility at 3 days (organic solvent or mixture, thermodynamic from solid, IPA:tBME (2:1), RT, slurry): < 2000 µg/mL | solubility (organic solvent or mixture, thermodynamic from solid, IPA:tBME (2:1), ~60° C., aliquot addition): < 3000 µg/mL | solubility at 3 days (organic solvent or mixture, thermodynamic from solid, IPA:tBME (2:1), ~60° C., slurry): < 3000 µg/mL
